Reference: patent publication US9388208B2, “Pyrrolo[1,2-f][1,2,4]triazines useful for treating respiratory syncitial virus infections” (Gilead Sciences, Inc., priority 2013, dated 2016)
Read-outs that look alike come from different tables or passages of the source.

Assays:
[1] = biological target: T1, RSV ribonucleoprotein (RNP) complexes (Human respiratory syncytial virus A, UniProt P28887); assay: RSV RNP assay (inhibition of RSV RNP transcription); format: biochemical, RSV A2; conditions: 90 minute incubation at 30° C., total radiolabeled transcripts
T1 construct: The supernatant (S3) fraction, containing the enriched RSV RNP complexes, was collected; endogenous in cells; host or cells: HEp-2 cells infected with RSV A2; detergent-extracted crude S3 fraction
T1 sequence (P28887 whole entry): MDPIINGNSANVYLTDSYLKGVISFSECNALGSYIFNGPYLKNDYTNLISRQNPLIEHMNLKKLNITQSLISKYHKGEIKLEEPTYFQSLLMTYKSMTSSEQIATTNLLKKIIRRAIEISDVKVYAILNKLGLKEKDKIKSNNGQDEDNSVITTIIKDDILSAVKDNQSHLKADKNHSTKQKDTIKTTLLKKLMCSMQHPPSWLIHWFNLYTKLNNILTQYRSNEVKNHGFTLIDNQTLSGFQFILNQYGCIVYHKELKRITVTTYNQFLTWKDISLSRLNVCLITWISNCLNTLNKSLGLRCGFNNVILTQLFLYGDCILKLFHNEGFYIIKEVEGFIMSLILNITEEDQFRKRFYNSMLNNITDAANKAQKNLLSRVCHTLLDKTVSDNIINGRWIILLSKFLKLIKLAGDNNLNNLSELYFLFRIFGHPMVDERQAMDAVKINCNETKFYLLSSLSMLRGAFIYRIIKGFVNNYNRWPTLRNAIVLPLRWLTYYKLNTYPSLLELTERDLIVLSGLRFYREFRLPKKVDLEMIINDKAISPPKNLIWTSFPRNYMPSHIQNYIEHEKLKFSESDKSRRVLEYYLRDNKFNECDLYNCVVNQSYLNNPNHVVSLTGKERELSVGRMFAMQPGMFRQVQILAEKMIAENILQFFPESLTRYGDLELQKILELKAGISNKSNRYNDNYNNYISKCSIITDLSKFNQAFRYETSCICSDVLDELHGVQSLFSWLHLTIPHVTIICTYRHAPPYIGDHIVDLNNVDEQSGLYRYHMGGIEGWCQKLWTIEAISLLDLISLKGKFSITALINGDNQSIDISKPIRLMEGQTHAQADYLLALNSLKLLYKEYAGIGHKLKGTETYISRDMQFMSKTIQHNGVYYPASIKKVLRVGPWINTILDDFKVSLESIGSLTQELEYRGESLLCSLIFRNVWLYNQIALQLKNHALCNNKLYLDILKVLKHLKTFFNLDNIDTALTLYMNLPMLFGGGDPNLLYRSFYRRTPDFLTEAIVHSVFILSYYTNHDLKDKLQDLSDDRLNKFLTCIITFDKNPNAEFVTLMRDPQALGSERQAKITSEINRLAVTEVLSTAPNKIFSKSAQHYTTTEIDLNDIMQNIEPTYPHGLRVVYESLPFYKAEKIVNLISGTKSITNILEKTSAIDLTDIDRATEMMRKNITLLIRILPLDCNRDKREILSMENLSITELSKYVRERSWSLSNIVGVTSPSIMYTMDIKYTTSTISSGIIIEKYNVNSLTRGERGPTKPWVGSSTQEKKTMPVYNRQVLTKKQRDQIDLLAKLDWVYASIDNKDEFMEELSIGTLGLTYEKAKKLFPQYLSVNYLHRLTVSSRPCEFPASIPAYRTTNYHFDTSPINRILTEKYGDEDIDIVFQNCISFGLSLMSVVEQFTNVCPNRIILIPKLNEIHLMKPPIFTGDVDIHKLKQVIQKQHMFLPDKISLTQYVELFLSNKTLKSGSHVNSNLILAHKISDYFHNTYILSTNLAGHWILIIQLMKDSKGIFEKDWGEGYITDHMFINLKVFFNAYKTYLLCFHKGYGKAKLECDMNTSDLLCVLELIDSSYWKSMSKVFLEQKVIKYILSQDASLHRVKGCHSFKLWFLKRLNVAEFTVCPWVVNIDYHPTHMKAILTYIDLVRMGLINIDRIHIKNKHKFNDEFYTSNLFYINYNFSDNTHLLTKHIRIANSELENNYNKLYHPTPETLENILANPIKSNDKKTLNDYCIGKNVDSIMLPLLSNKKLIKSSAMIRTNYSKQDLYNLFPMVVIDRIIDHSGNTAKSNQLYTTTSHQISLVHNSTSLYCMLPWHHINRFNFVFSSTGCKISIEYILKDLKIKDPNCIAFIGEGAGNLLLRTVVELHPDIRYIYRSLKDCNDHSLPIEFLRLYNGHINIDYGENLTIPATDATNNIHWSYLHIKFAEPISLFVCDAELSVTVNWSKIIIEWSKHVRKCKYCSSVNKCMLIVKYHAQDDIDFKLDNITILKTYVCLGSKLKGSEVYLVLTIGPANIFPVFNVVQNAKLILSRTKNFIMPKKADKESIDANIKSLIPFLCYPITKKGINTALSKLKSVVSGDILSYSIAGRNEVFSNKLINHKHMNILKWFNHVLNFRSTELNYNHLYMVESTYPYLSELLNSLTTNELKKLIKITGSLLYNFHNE
T1 sequence (P03421 whole entry, further chain): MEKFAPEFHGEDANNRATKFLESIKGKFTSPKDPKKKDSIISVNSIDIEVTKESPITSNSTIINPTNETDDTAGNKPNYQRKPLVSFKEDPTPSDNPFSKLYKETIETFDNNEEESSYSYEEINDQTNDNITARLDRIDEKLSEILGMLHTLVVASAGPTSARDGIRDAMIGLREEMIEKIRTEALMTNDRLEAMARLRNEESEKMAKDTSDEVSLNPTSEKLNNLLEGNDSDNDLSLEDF
Method: RSV ribonucleoprotein (RNP) complexes were prepared from a method modified from Mason at al (1). HEp-2 cells were plated at a density of 7.1×10^4 cells/cm^2 in MEM+10% fetal bovine serum (FBS) and allowed to attach overnight at 37° C. (5% CO2). Following attachment, the cells were infected with RSV A2 (M01=5) in 35 mL MEM+2% FBS. At 20 hours post-infection, the media was replaced with MEM+2% FBS supplemented with 2 μg/mL actinomycin D and returned to 37° C. for one hour. The cells were then washed once with PBS and treated with 35 mL of PBS+250 μg/mL lyso-lecithin for one minute, after which all liquid was aspirated. The cells were harvested by scrapping them into 1.2 mL of buffer A [50 mM TRIS acetate (pH 8.0), 100 mM potassium acetate, 1 mM DTT and 2 μg/mL actinomycin D] and lysed by repeated passage through an 18 gauge needle (10 times). The cell lysate was placed in ice for 10 minutes and then centrifuged at 2400g for 10 minutes at 4° C. The supernatant (S1) was removed and the pellet (P1) was disrupted in 600 uL of Buffer B [10 mM TRIS acetate (pH 8.0), 10 mM potassium acetate and 1.5 mM MgCl2] supplemented with 1% Triton X-100 by repeated passage through an 18 gauge needle (10 times). The resuspended pellet was placed in ice for 10 minutes and then centrifuged at 2400g for 10 minutes at 4° C. The supernatant (S2) was removed and the pellet (P2) was disrupted in 600 uL of Buffer B supplemented with 0.5% deoxycholate and 0.1% Tween 40. The resuspended pellet was placed in ice for 10 minutes and then centrifuged at 2400g for 10 minutes at 4° C. The supernatant (S3) fraction, containing the enriched RSV RNP complexes, was collected and the protein concentration determined by UV absorbance at 280 nm. Aliquoted RSV RNP S3 fractions were stored at −80° C.
Transcription reactions contained 25 μg of crude RSV RNP complexes in 30 μL of reaction buffer [50 mM TRIS-acetate (pH 8.0), 120 mM potassium acetate, 5% glycerol, 4.5 mM MgCl2, 3 mM DTT, 2 mM ethyleneglycol-bis(2-aminoethylether)-tetraacetic acid (EGTA), 50 μg/mL BSA, 2.5 U RNasin (Promega), ATP, GTP, UTP, CTP and 1.5 uCi [α-^32P] NTP (3000 Ci/mmol)]. The radiolabeled nucleotide used in the transcription assay was selected to match the nucleotide analog being evaluated for inhibition of RSV RNP transcription. Cold, competitive NTP was added at a final concentration of one-half its Km (ATP=20 μM, GTP=12.5 μM, UTP=6 μM and CTP=2 μM). The three remaining nucleotides were added at a final concentration of 100 μM.
To determine whether nucleotide analogs inhibited RSV RNP transcription, compounds were added using a 6 step serial dilution in 5-fold increments. Following a 90 minute incubation at 30° C., the RNP reactions were stopped with 350 μL of Qiagen RLT lysis buffer and the RNA was purified using a Qiagen RNeasy 96 kit. Purified RNA was denatured in RNA sample loading buffer (Sigma) at 65° C. for 10 minutes and run on a 1.2% agarose/MOPS gel containing 2M formaldehyde. The agarose gel was dried and exposed to a Storm phosphorimager screen and developed using a Storm phosphorimager (GE Healthcare). The concentration of compound that reduced total radiolabeled transcripts by 50% (IC50) was calculated by non-linear regression analysis of two replicates.

[2] = Cytotoxicity assay in HEp-2 cells; format: cell-based; conditions: human, uninfected HEp-2 cells, CellTiter Glo
Method: Cytotoxicity of tested compounds is determined in uninfected HEp-2 cells in parallel with the antiviral activity using the cell viability reagent in a similar fashion as described before for other cell types (Cihlar et al., Antimicrob Agents Chemother. 2008, 52(2):655-65.). The same protocol as for the determination of antiviral activity is used for the measurement of compound cytotoxicity except that the cells are not infected with RSV. Instead, an uninfected cell mixture at the same density is added at 20 ul/well to plates containing prediluted compounds, also at 100 nl/sample. Assay plates are then incubated for 4 days followed by a cell viability test using the same CellTiter Glo reagent addition and measurement of luminescent readouts. Untreated cell and cells treated at 2 uM puromycin (Sigma, St. Louis, Mo.) serve as 100% and 0% cell viability control, respectively. The percent of cell viability is calculated for each tested compound concentration relative to the 0% and 100% controls and the CC50 value is determined by non-linear regression as a compound concentration reducing the cell viability by 50%.

RSV strain A2 = assay: Anti-RSV activity, infectious cytopathic cell protection assay in HEp-2 cells; format: cell-based, Respiratory Syncytial Virus (RSV); conditions: human respiratory syncytial virus
Method: Antiviral activity against RSV is determined using an infectious cytopathic cell protection assay in HEp-2 cells. In this assay, compounds inhibiting viral infection and/or replication produce a cytoprotective effect against the virus-induced cell killing that can be quantified using a cell viability reagent. The techniques used here are novel adaptations of methods described in published literature (Chapman et al., Antimicrob Agents Chemother. 2007, 51(9):3346-53.)
HEp-2 cells are obtained from ATCC (Manassas, VI) and maintained in MEM media supplemented with 10% fetal bovine serum and penicillin/streptomycin. Cells are passaged twice a week and kept at subconfluent stage. Commercial stock of RSV strain A2 (Advanced Biotechnologies, Columbia, Md.) is titered before compound testing to determine the appropriate dilution of the virus stock that generates desirable cytopathic effect in HEp-2 cells.
For antiviral tests, HEp-2 cells are grown in large cell culture flasks to near confluency but not fully so. The compounds to be tested are prediluted in DMSO in 384-well compound dilution plates, either in an 8 or 40 sample per plate standardized dose response format. 3-fold serial dilution increments of each test compound are prepared in the plates and test samples are transferred via acoustic transfer apparatus (Echo, Labcyte) at 100 nl per well into cell culture assay 384-well plates. Each compound dilution is transferred in single or quadruplicate samples into dry assay plates, which are stored until assay is ready to go. The positive and negative controls are laid out in opposite on ends of the plate in vertical blocks (1 column).
Subsequently, an infectious mixture is prepared using an appropriate dilution of virus stock previously determined by titration with cells at a density of 50,000/ml and 20 uL/well is added to test plates w/compounds via automation (uFlow, Biotek). Each plate includes negative and positive controls (16 replicates each) to create 0% and 100% virus inhibition standards, respectively. Following the infection with RSV, testing plates are incubated for 4 days in a 37° C. cell culture incubator. After the incubation, a cell viability reagent, Cell TiterGlo (Promega, Madison, Wis.) is added to the assay plates, which are incubated briefly, and a luminescent readout is measured (Envision, Perkin Elmer) in all the assay plates. The RSV-induced cytopathic effect, percentage inhibition, is determined from the levels of remaining cell viability. These numbers are calculated for each tested concentration relative to the 0% and 100% inhibition controls, and the EC50 value for each compound is determined by non-linear regression as a concentration inhibiting the RSV-induced cytopathic effect by 50%. Various potent anti-RSV tool compounds are used as positive controls for antiviral activity.

[3] = Cytotoxicity assay in MT-4 cells; format: cell-based; conditions: human, Cell-Titer Glo
Method: (§1) The MT-4 cell line was obtained from the NIH AIDS Research and Reference Reagent Program (Germantown, Md.) and cultured in RPMI-1640 medium (Irvine Scientific, Santa Ana, Calif., Cat #9160) supplemented with 10% FBS, 100 units/mL penicillin, 100 units/mL streptomycin, and 2 mM L-Glutamine. The MT-4 cells were passaged twice per week to maintain cell densities below 0.6×10^6 cells/mL. Complete RPMI-1640 media containing 100× concentrations of 3-fold serially diluted compound, ranging from 26 nM to 530 μM, were stamped in quadruplicate into black 384-well plates. After compound addition, 2×10^3 MT-4 cells were added to each well using a MicroFlo liquid dispenser (BioTek, Winooski, Vt.) and the cells were cultured for 5 days at 37° C. in a 5% CO2 incubator. Following the incubation the cells were allowed to equilibrate to 25° C. and cell viability was determined by adding 25 μL of Cell-Titer Glo viability reagent. The mixture was incubated for 10 minutes at 25° C., and the luminescence signal was quantified on a Victor Luminescence plate reader. The CC50 value is defined as the concentration of compound that reduces cell viability by 50% as determined by the Cell-Titer Glo signal. The data were analyzed using Pipeline Pilot Plate Data Analytics Collection software (Version 7.0, Accelrys, San Diego, Calif.). CC50 values were calculated from a non-linear regression analysis using a 4-parameter sigmoidal dose-response equation: Y=Bottom+(Top−Bottom)/(1+10^[(Log CC50−X)*HillSlope]) where the Top and Bottom were fixed at 100% and 0% cell viability, respectively. CC50 values were calculated as the average±standard deviation of 3 independent experiments.

MT-4 cells = assay: Cytotoxicity assay in MT-4 cells; format: cell-based; conditions: 5 days, Cell-Titer Glo
Method: as §1

[4] = 96 h, HEp-2 cells infected with RSV A2, 4 days, Cell TiterGlo, read-out: EC50

Compound: [N-]=[N+]=N[C@]1(COP(=O)(O)OP(=O)(O)OP(=O)(O)O)O[C@@H](c2ccc3c(N)ncnn23)[C@H](O)[C@@H]1O [Example 9, ((2R,3S,4R,5S)-5-(4-aminopyrrolo[2,1-f][1,2,4]triazin-7-yl)-2-azido-3,4-dihydroxytetrahydrofuran-2-yl)methyl tetrahydrogen triphosphate]
- IC50 [1]: 120 nM

Compound: C=C[C@]1(COP(=O)(O)OP(=O)(O)OP(=O)(O)O)O[C@@H](c2ccc3c(N)ncnn23)[C@H](F)[C@@H]1O [Example 17, ((2R,3R,4R,5S)-5-(4-aminopyrrolo[2,1-f][1,2,4]triazin-7-yl)-4-fluoro-3-hydroxy-2-vinyltetrahydrofuran-2-yl)methyl tetrahydrogen triphosphate]
- IC50 [1]: 560 nM

Compound: N#C[C@]1(COP(=O)(O)OP(=O)(O)OP(=O)(O)O)O[C@@H](c2ccc3c(N)ncnn23)[C@H](O)[C@@H]1O [Example 8, ((2R,3S,4R,5S)-5-(4-aminopyrrolo[1,2-f][1,2,4]triazin-7-yl)-2-cyano-3,4-dihydroxytetrahydrofuran-2-yl)methyl tetrahydrogen triphosphate]
- IC50 [1]: 25 nM

Compound: N#C[C@]1(COP(=O)(O)OP(=O)(O)OP(=O)(O)O)O[C@@H](c2ccc3c(N)ncnn23)[C@H](F)[C@@H]1O [Example 6, ((2R,3R,4R,5S)-5-(4-aminopyrrolo[1,2-f][1,2,4]triazin-7-yl)-2-cyano-4-fluoro-3-hydroxytetrahydrofuran-2-yl)methyl tetrahydrogen triphosphate]
- IC50 [1]: 86 nM

Compound: Nc1ncnn2c([C@@H]3O[C@@](CO)(CCl)[C@@H](O)[C@H]3O)ccc12 [Example 26, (2R,3S,4R,5S)-5-(4-aminopyrrolo[2,1-f][1,2,4]triazin-7-yl)-2-(chloromethyl)-2-(hydroxymethyl)tetrahydrofuran-3,4-diol]
- CC50 at 4 days [2]: 42000 nM
- EC50 (RSV strain A2; [4]): > 50000 nM
- CC50 at 5 days [3]: > 53000 nM
- CC50 (MT-4 cells): > 57000 nM

Compound: [N-]=[N+]=N[C@]1(COP(=O)(O)OP(=O)(O)OP(=O)(O)O)O[C@@H](c2ccc3c(N)ncnn23)[C@H](F)[C@@H]1O [Example 27, ((2R,3R,4R,5S)-5-(4-aminopyrrolo[2,1-f][1,2,4]triazin-7-yl)-2-azido-4-fluoro-3-hydroxytetrahydrofuran-2-yl)methyl tetrahydrogen triphosphate]
- IC50 [1]: 97 nM

Compound: C#C[C@]1(COP(=O)(O)OP(=O)(O)OP(=O)(O)O)O[C@@H](c2ccc3c(N)ncnn23)[C@H](F)[C@@H]1O [Example 7, ((2R,3R,4R,5S)-5-(4-aminopyrrolo[1,24][1,2,4]triazin-7-yl)-2-ethynyl-4-fluoro-3-hydroxytetrahydrofuran-2-yl)methyl tetrahydrogen triphosphate]
- IC50 [1]: 1000 nM

Compound: C[C@@]1(F)[C@H](O)[C@@H](COP(=O)(O)OP(=O)(O)OP(=O)(O)O)O[C@H]1c1ccc2c(N)ncnn12 [((2R,3R,4R,5S)-5-(4-aminopyrrolo[2,1-f][1,2,4]triazin-7-yl)-4-fluoro-3-hydroxy-4-methyltetrahydrofuran-2-yl)methyl tetrahydrogen triphosphate, reference compound]
- IC50 [1]: > 100000 nM

Compound: [N-]=[N+]=N[C@]1(CO)O[C@@H](c2ccc3c(N)nc(F)nn23)[C@H](F)[C@@H]1O [Example 22, (2R,3R,4R,5S)-5-(4-amino-2-fluoropyrrolo[2,1-f][1,2,4]triazin-7-yl)-2-azido-4-fluoro-2-(hydroxymethyl)tetrahydrofuran-3-ol]
- CC50 at 4 days [2]: > 100000 nM
- EC50 (RSV strain A2; [4]): 570 nM
- EC50 (RSV strain A2; HEp-2 anti-RSV activity, read-out: EC50 (HEp-2 anti-RSV activity)): < 100000 nM
- CC50 (MT-4 cells): 32000 nM
